Assay results published in PubChem BioAssay AID1794811.
pEC50: −log10 of the molar value.

Target: High affinity choline transporter 1 (Homo sapiens) (UniProt Q9GZV3)
Assay: PubChem AID 1794811
Settings: HEK-293 JumpIN-SLC5A7, FLIPR membrane potential dye

Chain of High affinity choline transporter 1 (Homo sapiens) (Q9GZV3 whole entry, looked up): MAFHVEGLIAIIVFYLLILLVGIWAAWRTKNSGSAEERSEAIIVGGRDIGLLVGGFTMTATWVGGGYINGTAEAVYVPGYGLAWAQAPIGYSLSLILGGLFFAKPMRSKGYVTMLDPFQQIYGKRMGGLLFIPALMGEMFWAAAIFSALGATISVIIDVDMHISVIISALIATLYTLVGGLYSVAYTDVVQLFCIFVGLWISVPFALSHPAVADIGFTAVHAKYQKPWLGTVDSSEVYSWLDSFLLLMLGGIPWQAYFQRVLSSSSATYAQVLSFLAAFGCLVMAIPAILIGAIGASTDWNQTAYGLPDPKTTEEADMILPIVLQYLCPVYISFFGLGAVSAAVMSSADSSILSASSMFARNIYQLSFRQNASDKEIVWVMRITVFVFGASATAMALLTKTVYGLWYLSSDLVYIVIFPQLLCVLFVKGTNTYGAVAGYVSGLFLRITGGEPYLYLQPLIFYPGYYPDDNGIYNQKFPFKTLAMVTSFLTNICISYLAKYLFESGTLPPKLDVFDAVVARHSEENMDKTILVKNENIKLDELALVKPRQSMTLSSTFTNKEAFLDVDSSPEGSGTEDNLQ

Question: `C[N+](C)(C)CCO` was tested. Which pEC50 did it give?
Answer: 4.77
